Our source for the EC50 and IC50 values is patent US12171756B2, “NLRP3 modulators” (Innate Tumor Immunity, Inc., priority 2017, dated 2024).

Like-named read-outs stand apart in the source and are kept apart here.

Usually EC50 stands for the concentration that produces a half-maximal response. Broadly, the IC50 is the concentration needed to halve the response being measured.

One assay deals with T1, human TLR8 (Homo sapiens, UniProt Q9NR97).
T1 construct: host or cells: human HEK-Blue cells (HEK293-derived) co-expressing TLR8 and an NF-kB/AP1-inducible SEAP reporter
T1 sequence (Q9NR97 27-1041): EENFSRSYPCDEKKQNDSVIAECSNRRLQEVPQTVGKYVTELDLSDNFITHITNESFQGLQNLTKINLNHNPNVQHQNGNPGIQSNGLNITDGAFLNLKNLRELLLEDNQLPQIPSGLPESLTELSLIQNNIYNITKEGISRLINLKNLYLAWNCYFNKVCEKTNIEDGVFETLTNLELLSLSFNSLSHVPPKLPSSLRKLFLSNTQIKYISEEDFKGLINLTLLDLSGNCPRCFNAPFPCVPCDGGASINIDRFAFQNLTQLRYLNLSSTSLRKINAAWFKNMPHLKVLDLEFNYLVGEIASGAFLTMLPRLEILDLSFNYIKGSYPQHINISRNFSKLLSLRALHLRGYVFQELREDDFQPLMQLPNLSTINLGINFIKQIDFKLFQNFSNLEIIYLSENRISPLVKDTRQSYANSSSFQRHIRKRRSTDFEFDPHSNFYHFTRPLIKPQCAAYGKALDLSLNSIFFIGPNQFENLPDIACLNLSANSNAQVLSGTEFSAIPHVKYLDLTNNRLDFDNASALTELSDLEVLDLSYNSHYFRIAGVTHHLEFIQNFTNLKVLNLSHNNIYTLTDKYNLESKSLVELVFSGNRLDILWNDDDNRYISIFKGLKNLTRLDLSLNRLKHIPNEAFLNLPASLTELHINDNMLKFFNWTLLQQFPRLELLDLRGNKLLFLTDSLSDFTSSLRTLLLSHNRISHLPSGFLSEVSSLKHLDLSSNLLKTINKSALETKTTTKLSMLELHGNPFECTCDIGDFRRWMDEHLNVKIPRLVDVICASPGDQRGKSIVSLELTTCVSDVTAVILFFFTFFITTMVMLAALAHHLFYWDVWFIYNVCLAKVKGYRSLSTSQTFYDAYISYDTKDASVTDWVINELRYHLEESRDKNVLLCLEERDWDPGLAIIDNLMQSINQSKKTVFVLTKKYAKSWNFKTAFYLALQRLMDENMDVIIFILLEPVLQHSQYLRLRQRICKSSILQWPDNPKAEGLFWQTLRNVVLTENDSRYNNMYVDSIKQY
The experiment in a line: In vitro human TLR8 binding reporter assay (HEK-Blue, NF-kB/AP1-inducible SEAP). The assay is classed as cell-based. The settings on record: HEK-Blue human TLR8 SEAP reporter cells; activity range classes; read-out: TLR8 Agonist EC50. Put shortly:
(§1)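 EC50s come from NF-kB/AP1-driven SEAP secretion in HEK-Blue cells expressing TLR7 or TLR8, measured with Quanti-Blue after an 18 h compound incubation. Maximal response is defined by a 50 μM reference standard.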
Background: A reporter such as luciferase makes a cellular process visible.

The target in a further assay is T2, human TLR7 (Homo sapiens, UniProt Q9NYK1).
T2 construct: host or cells: human HEK-Blue cells (HEK293-derived) co-expressing TLR7 and an NF-kB/AP1-inducible SEAP reporter
T2 sequence (Q9NYK1 27-1049): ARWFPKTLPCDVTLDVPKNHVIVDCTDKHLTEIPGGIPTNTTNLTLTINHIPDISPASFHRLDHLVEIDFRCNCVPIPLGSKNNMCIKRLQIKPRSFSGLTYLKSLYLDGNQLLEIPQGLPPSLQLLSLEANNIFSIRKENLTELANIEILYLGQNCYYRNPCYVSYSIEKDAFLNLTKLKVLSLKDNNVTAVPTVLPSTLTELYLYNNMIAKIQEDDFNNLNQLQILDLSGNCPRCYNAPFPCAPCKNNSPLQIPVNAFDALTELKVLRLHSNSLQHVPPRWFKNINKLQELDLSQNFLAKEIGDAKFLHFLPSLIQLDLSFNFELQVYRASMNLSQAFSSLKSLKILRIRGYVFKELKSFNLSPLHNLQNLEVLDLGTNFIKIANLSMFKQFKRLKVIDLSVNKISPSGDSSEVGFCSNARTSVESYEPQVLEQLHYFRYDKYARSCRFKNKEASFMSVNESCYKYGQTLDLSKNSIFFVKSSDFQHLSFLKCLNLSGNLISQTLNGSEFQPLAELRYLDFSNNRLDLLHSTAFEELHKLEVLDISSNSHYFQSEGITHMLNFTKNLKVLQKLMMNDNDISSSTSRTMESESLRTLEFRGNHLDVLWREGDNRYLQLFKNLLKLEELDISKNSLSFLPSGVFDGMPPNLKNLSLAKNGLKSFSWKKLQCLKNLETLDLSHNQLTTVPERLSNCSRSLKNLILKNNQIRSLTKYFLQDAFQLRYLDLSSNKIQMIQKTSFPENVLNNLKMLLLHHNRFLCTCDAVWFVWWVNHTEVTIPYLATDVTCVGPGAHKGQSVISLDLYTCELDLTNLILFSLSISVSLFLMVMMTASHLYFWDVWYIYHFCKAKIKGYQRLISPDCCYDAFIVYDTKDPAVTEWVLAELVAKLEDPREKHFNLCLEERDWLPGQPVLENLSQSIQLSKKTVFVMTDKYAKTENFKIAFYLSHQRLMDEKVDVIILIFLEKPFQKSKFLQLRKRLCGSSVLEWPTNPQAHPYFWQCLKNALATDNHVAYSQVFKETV
Kind of assay: In vitro human TLR7 binding reporter assay (HEK-Blue, NF-kB/AP1-inducible SEAP). The assay is classed as cell-based. The settings on record: HEK-Blue human TLR7 SEAP reporter cells; activity range classes; read-out: TLR7 Agonist EC50. Put shortly:
as §1

The test system of assay [1] is IL-1β production in PMA-differentiated THP-1 cells. The experiment in a line: Measurement of IL-1β production in PMA-differentiated THP-1 cells (ELISA, 4 hours). In kind it is cell-based, human. The settings on record: assayed using one or more of the described procedures, read-out: NLRP3 hIL1B IC50. Put shortly:
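IL-1β released into supernatant was measured by ELISA after a 4-hour compound exposure (final DMSO 1%, concentrations such as 100 down to 0.1 μM). Cells: THP-1 pretreated 24 h with 10 μg/ml PMA, then trypsinized and seeded at 1×10^6/ml in 2% FBS RPMI.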
A general note: An ELISA detects its analyte on a solid surface through an enzyme-linked reagent.

The mark [2] stands for this setting: Homo sapiens, THP-1, human IL-1β production.

Take `Nc1cc(-c2cnn(CCO)c2)c2ccc(-c3ccn[nH]3)cc2n1` [Compound 348, 2-(4-(2-amino-7-(1H-pyrazol-5-yl)quinolin-4-yl)-1H-pyrazol-1-yl)ethan-1-ol]: the EC50 on human TLR8 and on human TLR7 was above 100 µM each time. The IC50 in assay [1] (setting [2]) turned out to be 7.26 µM.
Take `Nc1cc(OC[C@@H](O)CO)c2ccc(-c3ccn[nH]3)cc2n1` [Compound 220, (S)-3-((2-amino-7-(1H-pyrazol-5-yl)quinolin-4-yl)oxy)propane-1,2-diol]: the EC50 at human TLR8 and on human TLR7 was above 100 µM in each case. Further, the IC50 in assay [1] (setting [2]) was found to be 0.57 µM.
Take `Nc1cc(OCc2ccccn2)c2ccc(-c3ccn[nH]3)cc2n1` [Compound 189]: the EC50 on human TLR8 and at human TLR7 was above 100 µM in each case. Moreover, in assay [1] (setting [2]), the IC50 amounted to 0.39 µM.
With `Nc1cc(NC2CCC2)c2ccc(-c3ccn[nH]3)cc2n1` [Compound 273], the EC50 at human TLR8 and at human TLR7 was above 100 µM throughout. Also, the IC50 in assay [1] (setting [2]) amounted to 0.17 µM.
`Nc1cc(OCCN2CCNC2=O)c2ccc(-c3ccn[nH]3)cc2n1` [Compound 198]: the EC50 on human TLR8 and on human TLR7 was above 100 µM in each case. Besides, in assay [1] (setting [2]), the IC50 came out at 11.4 µM.
Take `Nc1cc(NCCc2cnc[nH]2)c2ccc(-c3ccn[nH]3)cc2n1` [Compound 225]: the EC50 on human TLR8 and on human TLR7 was above 100 µM throughout. Also, the IC50 in assay [1] (setting [2]) worked out at 0.13 µM.
Take `Nc1cc(N2CC[C@H](O)C2)c2ccc(-c3ccn[nH]3)cc2n1` [Compound 142]: the EC50 at human TLR8 and on human TLR7 was above 100 µM in each case. Also, the IC50 in assay [1] (setting [2]) came out at 1.43 µM.
In the case of `Nc1cc(NC[C@@H]2CCCNC2)c2ccc(-c3ccn[nH]3)cc2n1` [Compound 326], the EC50 on human TLR8 and on human TLR7 was above 100 µM in each case. The IC50 in assay [1] (setting [2]) is 24.7 µM.
For `Nc1cc(NCCNC(=O)c2ccccn2)c2ccc(-c3ccn[nH]3)cc2n1` [Compound 204], the EC50 on human TLR8 and on human TLR7 was above 100 µM in each case. Further, the IC50 in assay [1] (setting [2]) is 0.64 µM.
As for `Nc1cc(NCc2ncco2)c2ccc(-c3ccn[nH]3)cc2n1` [Compound 249], the EC50 at human TLR8 and at human TLR7 was above 100 µM in each case. Also, the IC50 in assay [1] (setting [2]) was determined as 0.05 µM.
Take `Nc1cc(OCC2CCOCC2)c2ccc(-c3ccn[nH]3)cc2n1` [Compound 187]: the EC50 at human TLR8 and at human TLR7 was above 100 µM in each case. The IC50 in assay [1] (setting [2]) was found to be 0.85 µM.
`Cc1nc(CNc2cc(N)nc3cc(-c4ccn[nH]4)ccc23)cs1` [Compound 156]: the EC50 on human TLR8 and on human TLR7 was above 100 µM in each case. Further, in assay [1] (setting [2]), the IC50 came to 0.2 µM.
On to `Nc1cc(CCCCO)c2ccc(-c3ccn[nH]3)cc2n1` [Compound 218, 4-(2-amino-7-(1H-pyrazol-5-yl)quinolin-4-yl)butan-1-ol], for which the EC50 on human TLR8 and on human TLR7 was above 100 µM each time. In addition, the IC50 in assay [1] (setting [2]) turned out to be 1.19 µM.
Turning to `Cn1cncc1CNc1cc(N)nc2cc(-c3ccn[nH]3)ccc12` [Compound 252], the EC50 at human TLR8 and on human TLR7 was above 100 µM in each case. Besides, the IC50 in assay [1] (setting [2]) worked out at 1.69 µM.
`Nc1cc(N2CCC[C@@H]2CO)c2ccc(-c3ccn[nH]3)cc2n1` [Compound 272]: the EC50 at human TLR8 and at human TLR7 was above 100 µM in each case. In assay [1] (setting [2]), the IC50 amounted to 6.22 µM.
Regarding `Nc1cc(OCCCCO)c2ccc(-c3ccn[nH]3)cc2n1` [Compound 172, 4-((2-amino-7-(1H-pyrazol-5-yl)quinolin-4-yl)oxy)butan-1-ol], the EC50 on human TLR8 and on human TLR7 was above 100 µM throughout. Besides, the IC50 in assay [1] (setting [2]) is 0.41 µM.
As for `Nc1cc(N[C@@H]2CCCC[C@H]2O)c2ccc(-c3ccn[nH]3)cc2n1` [Compound 162], the EC50 at human TLR8 and on human TLR7 was above 100 µM each time. Further, the IC50 in assay [1] (setting [2]) worked out at 2.49 µM.
With `Nc1cc(NCCn2cccn2)c2ccc(-c3ccn[nH]3)cc2n1` [Compound 262], the EC50 on human TLR8 and at human TLR7 was above 100 µM throughout. Also, the IC50 in assay [1] (setting [2]) stood at 0.12 µM.
Regarding `Nc1cc(NC[C@H]2CCCN2)c2ccc(-c3cc[nH]n3)cc2n1` [Compound 285], the EC50 on human TLR8 and at human TLR7 was above 100 µM throughout. Besides, the IC50 in assay [1] (setting [2]) was 1.56 µM.
Take `Nc1cc(NCc2ncc[nH]2)c2ccc(-c3ccn[nH]3)cc2n1` [Compound 240]: the EC50 on human TLR8 and on human TLR7 was above 100 µM throughout. Also, the IC50 in assay [1] (setting [2]) amounted to 0.24 µM.
For the compound `Nc1cc(NCCNC(=O)c2ccccc2)c2ccc(-c3ccn[nH]3)cc2n1` [Compound 146], the EC50 at human TLR8 and at human TLR7 was above 100 µM throughout. The IC50 in assay [1] (setting [2]) turned out to be 4.07 µM.
As to `Nc1cc(NCC2CCOCC2)c2ccc(-c3ccn[nH]3)cc2n1` [Compound 137], the EC50 at human TLR8 and on human TLR7 was above 100 µM in each case. In addition, the IC50 in assay [1] (setting [2]) was found to be 0.55 µM.
For the compound `Nc1cc(NC2CCNC2)c2ccc(-c3ccn[nH]3)cc2n1` (stereo in doubt) [Compound 321, (S)-7-(1H-pyrazol-3-yl)-N4-(pyrrolidin-3-yl)quinoline-2,4-diamine], the EC50 on human TLR8 and at human TLR7 was above 100 µM throughout. Further, the IC50 in assay [1] (human IL-1β production) worked out at 11.6 µM.
Turning to `Nc1cc(OCC(=O)N2CCCC2)c2ccc(-c3ccn[nH]3)cc2n1` [Compound 183], the EC50 on human TLR8 and on human TLR7 was above 100 µM in each case. In addition, the half-maximal inhibitory concentration (IC50) in assay [1] (setting [2]) came out at 8.4 µM.
Consider `Nc1cc(NCc2cc[nH]n2)c2ccc(-n3cccn3)cc2n1` [Compound 292], for which the EC50 on human TLR8 and at human TLR7 was above 100 µM in each case. Also, in assay [1] (setting [2]), the IC50 was found to be 0.34 µM.
For `Nc1cc(OCC2(CO)COC2)c2ccc(-c3ccn[nH]3)cc2n1` [Compound 333], the EC50 at human TLR8 and at human TLR7 was above 100 µM each time. Moreover, in assay [1] (setting [2]), the IC50 was 1.31 µM.
As for `COc1cccc(CNc2cc(N)nc3cc(-c4ccn[nH]4)ccc23)c1` [Compound 259], the EC50 at human TLR8 and at human TLR7 was above 100 µM each time. Moreover, in assay [1] (setting [2]), the IC50 was 0.64 µM.
